Results as given in article PMC4775997, “Imidazopyridazine Inhibitors of Plasmodium falciparum Calcium-Dependent Protein Kinase 1 Also Target Cyclic GMP-Dependent Protein Kinase and Heat Shock Protein 90 To Kill the Parasite at Different Stages of Intracellular Development” (Antimicrobial Agents and Chemotherapy, 2016).
Like-named read-outs stand apart in the source and are kept apart here.

Key:
[1] = target: T1, PfPKG T618Q (Plasmodium falciparum, UniProt Q8I719, T618Q); assay: biochemical; format: biochemical; settings: for IC50: read-out: Enzyme inhibition IC50, PKG T618Q
T1 construct: plasmids (pTrcHisC) encoding full-length PfPKG and PfPKG T618Q with N-terminal His tags; His tag (N); made in house; host or cells: E. coli Rosetta2(DE3)
T1 sequence (Q8I719 whole entry T618Q): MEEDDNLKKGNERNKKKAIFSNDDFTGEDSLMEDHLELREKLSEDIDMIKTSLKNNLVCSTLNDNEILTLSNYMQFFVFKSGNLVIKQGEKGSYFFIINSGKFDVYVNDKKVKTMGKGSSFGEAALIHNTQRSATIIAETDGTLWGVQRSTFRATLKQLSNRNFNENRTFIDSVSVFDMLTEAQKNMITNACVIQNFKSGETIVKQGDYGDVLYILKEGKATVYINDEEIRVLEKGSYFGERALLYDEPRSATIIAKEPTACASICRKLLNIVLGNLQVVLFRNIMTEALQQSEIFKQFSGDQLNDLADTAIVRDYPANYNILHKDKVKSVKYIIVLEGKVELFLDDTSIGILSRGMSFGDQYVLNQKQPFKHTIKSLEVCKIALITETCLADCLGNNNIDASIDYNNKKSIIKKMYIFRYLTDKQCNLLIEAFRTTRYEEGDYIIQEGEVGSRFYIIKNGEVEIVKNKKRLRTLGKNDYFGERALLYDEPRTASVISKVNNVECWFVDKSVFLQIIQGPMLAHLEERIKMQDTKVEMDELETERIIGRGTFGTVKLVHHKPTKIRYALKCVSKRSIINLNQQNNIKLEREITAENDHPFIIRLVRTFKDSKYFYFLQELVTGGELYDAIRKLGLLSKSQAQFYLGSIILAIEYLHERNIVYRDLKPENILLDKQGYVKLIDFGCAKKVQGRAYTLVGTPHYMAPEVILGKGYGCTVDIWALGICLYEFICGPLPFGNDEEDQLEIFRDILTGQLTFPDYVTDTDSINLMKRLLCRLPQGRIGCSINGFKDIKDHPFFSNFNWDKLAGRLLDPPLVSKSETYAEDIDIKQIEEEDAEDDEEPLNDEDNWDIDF

[2] = target: T2, PfPKG (Plasmodium falciparum, UniProt Q8I719); assay: Microfluidic fluorescent shift assay of cGMP-dependent protein kinase activity; format: biochemical; settings: read-out: Enzyme inhibition IC50, PKG
T2 construct: plasmids (pTrcHisC) encoding full-length PfPKG and PfPKG T618Q with N-terminal His tags; His tag (N); made in house; host or cells: E. coli Rosetta2(DE3)

[3] = tested on: P. falciparum 3D7; assay: SYBR green I growth assay, wild-type parasites; format: cell-based, Plasmodium falciparum
[4] = target: CDPK1 (Plasmodium falciparum, UniProt P62344); assay: biochemical; format: biochemical; settings: read-out: Enzyme inhibition IC50, CDPK1
Sequence of CDPK1 (P62344 whole entry): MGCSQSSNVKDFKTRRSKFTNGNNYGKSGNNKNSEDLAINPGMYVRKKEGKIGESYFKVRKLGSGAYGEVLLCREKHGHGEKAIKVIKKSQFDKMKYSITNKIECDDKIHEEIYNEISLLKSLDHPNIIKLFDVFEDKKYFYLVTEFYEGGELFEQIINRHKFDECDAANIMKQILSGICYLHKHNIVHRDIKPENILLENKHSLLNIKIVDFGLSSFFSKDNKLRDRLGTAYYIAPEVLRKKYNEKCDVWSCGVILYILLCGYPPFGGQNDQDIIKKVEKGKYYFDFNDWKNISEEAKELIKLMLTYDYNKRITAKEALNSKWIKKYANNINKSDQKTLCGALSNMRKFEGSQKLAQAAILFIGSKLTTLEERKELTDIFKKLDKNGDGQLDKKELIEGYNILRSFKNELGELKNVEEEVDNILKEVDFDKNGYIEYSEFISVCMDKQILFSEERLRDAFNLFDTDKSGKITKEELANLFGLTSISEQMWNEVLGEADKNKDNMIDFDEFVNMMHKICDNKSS

[5] = tested on: P. falciparum 3D7; assay: Microscopic examination of Giemsa-stained smears (stage of action); settings: for Stage of action (before or after DNA synthesis): Table S1, ring-stage parasites, 10x EC50 for 48 h; for Stage of action: ring stage parasites treated with 10 times the 96-h EC50 for 48 h
[6] = tested on: 3D7 PKG T618Q; assay: microbe, parasite or virus in culture; format: cell-based, Plasmodium falciparum; settings: for EC50: read-out: Parasite inhibition EC50, 3D7 PKG T618Q; for Ratio 3D7 PKG T618Q/3D7: Table S2
[7] = Table S1, single experiment with duplicate samples, or mean of triplicate experiments (SD), read-out: EC50 48 hours
[8] = Table S1, single experiment with duplicate samples, or mean of triplicate experiments (SD), read-out: EC50 96 hours
[9] = Plasmodium falciparum, 3D7, 48 h, read-out: EC50 after treatment for 48 h
[10] = Plasmodium falciparum, 3D7, 96 h, read-out: EC50 96 hours
[11] = Plasmodium falciparum, 3D7, 96 h, read-out: EC50 after treatment for 96 h
[12] = Plasmodium falciparum, 3D7, 96 h, read-out: Parasite inhibition EC50, 3D7
[13] = Plasmodium falciparum, 3D7, 96 h
[14] = Table 2, SYBR green I, 96 h, single experiment, or mean (SD) of duplicate assays, read-out: Parasite inhibition EC50, 3D7
[15] = Table 2, SYBR green I, 96 h, single experiment, or mean (SD) of duplicate assays

Structure (SMILES) | IC50 ([1]; Table S2) [µM] | IC50 ([2]; Table S2) [µM] | EC50 [3, 7] [µM] | EC50 [3, 8] [µM] | ratio EC5048:EC5096 ([3]; Table S1) | Selectivity PKG T618Q/PKG ([1]; Table S2) | IC50 ([4]; Table S2) [µM] | also measured
CN1CCC(Nc2ccc3ncc(-c4cc(F)c(Nc5ccccn5)c(F)c4)n3n2)CC1 [Compound 2] | 12.8 | 0.069 | 1.28 | 1.04 | – | – | – | –
CN1CCC(Nc2ccc3ncc(-c4ccc(Nc5cnccn5)cc4)n3n2)CC1 [Compound 3] | – | – | 0.76 | 0.61 | 1.3 | – | – | –
CC(C)CCNc1ccc(-c2cnc3ccc(N4CCC(N(C)C)CC4)nn23)cn1 [Compound 5] | – | – | 0.54 | 0.39 | 1.4 | – | – | –
CC(C)CCNc1ccc(-c2cnc3ccc(NC4CCN(C)C4)nn23)cn1 (centres unmarked) [Compound 6] | – | – | 0.59 | 0.42 | 1.4 | – | – | –
CN1CCC(Nc2ccc3ncc(-c4cc(F)c(Nc5ncccc5F)c(F)c4)n3n2)CC1 [Compound 8] | 64.6 | 0.237 | 0.99 | 0.66 | 1.5 | 272 | 0.017 | –
NC1CCC(Nc2ccc3ncc(-c4ccc(Nc5ncccc5F)cc4)n3n2)CC1 (centres unmarked) [Compound 9] | 16.8 | 0.048 | 0.62 | 0.4 | – | – | – | –
c1ccc(-n2cc(-c3cnc4ccc(NC5CCNCC5)nn34)cn2)cc1 [Compound 10] | – | – | 0.72 | 0.46 | 1.6 | – | – | –
CC(C)CCNc1ccc(-c2cnc3ccc(NC4CCNCC4)nn23)cn1 [Compound 11] | 256 | 0.256 | 0.96 | 0.6 | 1.6 | 1000 | 0.015 | –
CC(C)CCNc1ccc(-c2cnc3ccc(N4CCC(N)CC4)nn23)cn1 [Compound 12] | – | – | 0.41 | 0.25 | 1.6 | – | – | –
Fc1cccnc1Nc1ccc(-c2cnc3ccc(NC4CCNCC4)nn23)cc1 [Compound 13] | 3.68 | 0.162 | 1.25 | 0.76 | 1.7 | 23 | 0.014 | –
CCCCNc1ccc(-c2cnc3ccc(N4CCN(C)CC4)nn23)cn1 [Compound 14] | – | – | 2.1 | 1.18 | 1.8 | – | – | –
CN1CCC(Nc2ccc3ncc(-c4cnc(Nc5cnccn5)c(F)c4)n3n2)CC1 [Compound 15] | 51.3 | 0.249 | 1.74 | 0.96 | 1.9 | 206 | 0.02 | –
CN1CCC(Nc2ccc3ncc(-c4ccc(Nc5ccccn5)c(F)c4)n3n2)CC1 [Compound 16] | 10.6 | 0.088 | – | – | – | – | – | –
CN1CCC(Nc2ccc3ncc(-c4ccc(Nc5ncccc5F)nc4)n3n2)CC1 [Compound 17] | 12.1 | 0.118 | 1.15 | 0.58 | – | – | – | –
CN1CCC(Nc2ccc3ncc(-c4ccc(Nc5ncccc5F)cc4)n3n2)CC1 [Compound 18] | 15.7 | 0.404 | 1.22 | 0.6 | – | – | – | –
CCCCNc1ccc(-c2cnc3ccc(N4CCC(N)CC4)nn23)cn1 [Compound 19] | – | – | 0.57 | 0.26 | 2.2 | – | – | –
Fc1cc(-c2cnc3ccc(NC4CCNCC4)nn23)ccc1Nc1ccccn1 [Compound 21] | 3.77 | 0.087 | 1.63 | 0.69 | 2.4 | 44 | 0.01 | –
CC(C)CCNc1ncc(-c2cnc3ccc(NC4CCN(C)CC4)nn23)cn1 [Compound 23] | 4.76 | 0.16 | 2.49 | 0.99 | 2.5 | 30 | 0.014 | –

Structure (SMILES) | IC50 ([1]; Table S2) [µM] | IC50 ([2]; Table S2) [µM] | EC50 [3, 7] [µM] | EC50 [3, 8] [µM] | ratio EC5048:EC5096 ([3]; Table S1) | Selectivity PKG T618Q/PKG ([1]; Table S2) | IC50 ([4]; Table S2) [µM] | also measured
Fc1cccnc1Nc1ccc(-c2cnc3ccc(NC4CCNCC4)nn23)cn1 [Compound 24] | 1.25 | 0.062 | 2.45 | 0.71 | 3.4 | 20 | 0.011 | –
Fc1cc(-c2cnc3ccc(NC4CCNCC4)nn23)cnc1Nc1ccccn1 [Compound 25] | 9.93 | 0.054 | 1.96 | 0.54 | 3.6 | 182 | 0.013 | –
c1ccc(Nc2ncc(-c3cnc4ccc(NC5CCNCC5)nn34)cn2)nc1 [Compound 26] | 3.28 | 0.02 | 0.83 | 0.2 | 4.2 | 161 | 0.009 | –
Fc1cc(-c2cnc3ccc(NC4CCNCC4)nn23)cnc1Nc1cnccn1 [Compound 27] | 10 | 0.101 | 4.3 | 0.84 | 5.1 | 99 | 0.017 | –
CC(C)CCNc1ncc(-c2cnc3ccc(NC4CCNCC4)nn23)cn1 [Compound 29] | 0.88 | 0.093 | 3.46 | 0.64 | 5.4 | 10 | 0.018 | –
Fc1cccnc1Nc1ncc(-c2cnc3ccc(NCCN4CCNCC4)nn23)cn1 [Compound 30] | – | – | 0.31 | 0.05 | 6.0 | – | – | –
Fc1cccnc1Nc1ncc(-c2cnc3ccc(NC4CCNCC4)nn23)cn1 [Compound 32] | 6.16 | 0.007 | 1.79 | 0.11 | 16.6 | 931 | 0.01 | –
CN1CCC(Nc2ccc3ncc(-c4cnc(Nc5ncccc5F)nc4)n3n2)CC1 [Compound 33] | 10 | 0.005 | – | 0.03 | – | – | – | –
c1nc(N2CCCCC2)ncc1-c1cnc2ccc(NC3CCNCC3)nn12 [Compound 34] | – | – | – | 1.18 | – | – | – | –
NC1CCC(Nc2ccc3ncc(-c4cnc(Nc5ncccc5F)nc4)n3n2)CC1 (centres unmarked) [Compound 36] | – | – | – | – | – | – | – | Stage of action (before or after DNA synthesis) [5]: late schizont; Stage of action [5]: Late schizont; EC50 [3, 9]: > 1000 µM; EC50 [3, 10]: 0.02 µM; EC50 [3, 11]: 0.023 µM; EC50 [3, 12]: 0.034 µM; EC50 after treatment for 48 h ([3]; SYBR green I, 48 h incubation, mean of three independent experiments (SD)): not able to be determined with any accuracy; EC50 [6, 13]: 0.901 µM
CC(C)CCNc1ncc(-c2cnc3ccc(NC4CCC(N)CC4)nn23)cn1 (centres unmarked) [Compound 37] | – | – | – | 0.65 | – | – | – | –
Fc1cccnc1Nc1ncc(-c2cnc3ccc(NC4CCC(N5CCCC5)CC4)nn23)cn1 (centres unmarked) [Compound 39] | – | – | – | – | – | – | – | IC50 ([1]; Table 2, ATP at Km 90 μM): 25.5 µM; IC50 ([2]; Table 2, ATP at Km 20 μM): 0.002 µM; Stage of action (before or after DNA synthesis) [5]: late schizont; Stage of action [5]: Late schizont; EC50 ([3]; SYBR green I, 48 h incubation, mean of three independent experiments (SD), read-out: EC50 after treatment for 48 h): > 1000 µM; EC50 ([3]; SYBR green I, 96 h incubation, mean of three independent experiments (SD), read-out: EC50 after treatment for 96 h): 0.02 µM; EC50 [3, 14]: 0.034 µM; EC50 [6, 15]: 0.982 µM; Decrease in potency against the PKG T618Q variant parasite ([6]; versus 3D7 WT, 96 h SYBR green I): 29 fold
c1cnc(Nc2ncc(-c3cnc4ccc(NC5CCNCC5)nn34)cn2)cn1 [Compound 40] | – | – | – | 1.23 | – | – | – | –
Fc1cccnc1Nc1ncc(-c2cnc3ccc(NC4CCC(N5CCOCC5)CC4)nn23)cn1 (centres unmarked) [Compound 41] | – | – | – | – | – | – | – | Stage of action (before or after DNA synthesis) [5]: late schizont; Developmental arrest seen in smears ([5]; parasites about 21 h after invasion, 48 h at 10 times the EC50 determined by FACS (compound C 0.3 μM, compound D 4 μM)): arrested prior to merozoite egress; Stage of action [5]: Late schizont; EC50 [3, 9]: > 1000 µM; EC50 [3, 10]: 0.04 µM; EC50 [3, 11]: 0.037 µM; EC50 [3, 12]: 0.042 µM; EC50 [6, 13]: 0.923 µM
CNc1ccc2ncc(-c3ccc(NCCC(C)C)nc3)n2n1 [Compound 42] | – | – | – | – | – | – | – | IC50 ([4]; Table 2): 0.081 µM; EC50 [3, 14]: 0.836 µM; 3D7 PKG T618Q/3D7 EC50 ratio ([6]; Table 2): 1.5; EC50 [6, 15]: 1.23 µM; Ratio 3D7 PKG T618Q/3D7 [6]: 1
CC(C)CCNc1ccc(-c2cnc3ccc(NC4CCN(C)CC4)nn23)cn1 [Compound 43] | – | – | – | – | – | – | – | EC50 ([3]; Table S2, 96 h, read-out: Parasite inhibition EC50, 3D7): 0.079 µM; EC50 [6, 15]: 0.093 µM
CC(C)CNc1ncc(-c2cnc3ccc(NC4CCN(C)CC4)nn23)cn1 [Compound 44] | – | – | – | – | – | – | – | IC50 ([4]; Table 2): 0.065 µM; EC90 ([3]; 3D7 parasites): 0.65 µM; EC50 [3, 14]: 0.236 µM; 3D7 PKG T618Q/3D7 EC50 ratio ([6]; Table 2): 2.0; EC50 [6, 15]: 0.477 µM; Ratio 3D7 PKG T618Q/3D7 [6]: 2
